Results: patent US20120108431A1, “PLANT GROWTH REGULATOR ADDITIVE” (TAMINCO, NAAMLOZE VENNOOTSCHAP, priority 2009, published 2012)

Key:
Format in all cases: in vivo
Soybean = Soybean Trial 1, pot trial, foliar spray at V2-V3; settings: for Final Seed Yield at Harvest (g per pot): one plant per pot; for Rooting (0-9) + 28 Days: score 0-9, 28 days after spraying
Navy bean cv Primel = assay: Navy bean Trial 2, pot trial, foliar spray at V2-V3; settings: for Final Seed Yield at Harvest (g per pot): one plant per pot; for Rooting (0-9) + 28 Days: score 0-9, 28 days after spraying
Winter wheat cv Limerick = assay: Winter wheat Trial 3, pot trial, sprayed at GS23; settings: for Total No of Shoots/Plant at GS33 / Total No of “Large” Shoots/Plant at GS33 / Rooting (0-9) + 28 Days / Final Seed Yield + % / Rooting + % / Total No of Shoots/Plant + % / Total No of “Large” Shoots/Plant + %: winter wheat pots; for Rooting (0-9) + 28 Days: score 0-9, 28 days after spraying; for Final Seed Yield + % / Rooting + % / Total No of Shoots/Plant + % / Total No of “Large” Shoots/Plant + %: increase over the line given as 0 (untreated or growth regulator alone); for Final Seed Yield at Harvest (g per pot): winter wheat, eight plants per pot
Description: The applied concentration of chemical can vary widely depending on the water volume applied to plants as well as other factors such as plant age and size, and plant sensitivity to the product. […] The rate of other components such as spreaders and stickers can be 50-200 ml per ha. C. […] Sprayed: 10 June, at GS23 (early-mid tillering). Plants were scored/assessed at GS33 on 12 July, with other measurements at crop maturity.

[1] = soybean, increase over the line given as 0 (untreated or growth regulator alone)
[2] = navy bean, increase over the line given as 0 (untreated or growth regulator alone)

Question: How did the “No of Large Pod Bearing Branches/Plant at Harvest” value (Soybean; soybean) turn out when `CCOC(=O)C1CC(=O)C(=C(O)C2CC2)C(=O)C1` (stereo not drawn) [MOD, Trinexapac-ethyl] was run?
Answer: 1.0

Question: And the “Final Seed Yield at Harvest (g per pot)” value (Soybean; soybean)?
Answer: 36.2 g per pot

Question: What about the “Plant Biomass Score (0-9) at Harvest” value (Soybean; soybean) of the same molecule?
Answer: 6.2

Question: And the “Rooting (0-9) + 28 Days” value (Soybean; soybean)?
Answer: 4.4

Question: What about the “Final Seed Yield + %” value (Soybean; [1]) of the same molecule?
Answer: 0%

Question: What about the “No of Large Pod Bearing Branches/Plant + %” value (Soybean; [1]) of the same molecule?
Answer: 0%

Question: What about the “Plant Biomass Score + %” value (Soybean; [1]) of the same molecule?
Answer: 0%

Question: And the “Rooting + %” value (Soybean; [1])?
Answer: 0%

Question: And the “No of Large Pod Bearing Branches/Plant at Harvest” value (Navy bean cv Primel; navy bean)?
Answer: 1.2

Question: What about the “Final Seed Yield at Harvest (g per pot)” value (Navy bean cv Primel; navy bean) of the same molecule?
Answer: 56.1 g per pot

Question: What about the “Plant Biomass Score (0-9) at Harvest” value (Navy bean cv Primel; navy bean) of the same molecule?
Answer: 5.6

Question: What about the “Rooting (0-9) + 28 Days” value (Navy bean cv Primel; navy bean) of the same molecule?
Answer: 7.2

Question: And the “Final Seed Yield + %” value (Navy bean cv Primel; [2])?
Answer: 0%

Question: And the “No of Large Pod Bearing Branches/Plant + %” value (Navy bean cv Primel; [2])?
Answer: 0%

Question: And the “Plant Biomass Score + %” value (Navy bean cv Primel; [2])?
Answer: 0%

Question: What about the “Rooting + %” value (Navy bean cv Primel; [2]) of the same molecule?
Answer: 0%

Question: And the “Total No of Shoots/Plant at GS33” value (Winter wheat cv Limerick)?
Answer: 3.8

Question: What about the “Total No of “Large” Shoots/Plant at GS33” value (Winter wheat cv Limerick) of the same molecule?
Answer: 2.6

Question: And the “Rooting (0-9) + 28 Days” value (Winter wheat cv Limerick)?
Answer: 6.4

Question: What about the “Final Seed Yield + %” value (Winter wheat cv Limerick) of the same molecule?
Answer: 0%

Question: What about the “Rooting + %” value (Winter wheat cv Limerick) of the same molecule?
Answer: 0%

Question: What about the “Total No of Shoots/Plant + %” value (Winter wheat cv Limerick) of the same molecule?
Answer: 0%

Question: And the “Total No of “Large” Shoots/Plant + %” value (Winter wheat cv Limerick)?
Answer: 0%

Question: What about the “Final Seed Yield at Harvest (g per pot)” value (Winter wheat cv Limerick) of the same molecule?
Answer: 35.4 g per pot

Question: Which “No of Large Pod Bearing Branches/Plant at Harvest” value (Soybean; soybean) does the source give for `CC1(C)CCC(Cc2ccc(Cl)cc2)C1(O)Cn1cncn1` (stereo not drawn) [MET2, Metconazole] here?
Answer: 1.0

Question: What about the “Final Seed Yield at Harvest (g per pot)” value (Soybean; soybean) of the same molecule?
Answer: 36.6 g per pot

Question: And the “Plant Biomass Score (0-9) at Harvest” value (Soybean; soybean)?
Answer: 6.0

Question: What about the “Rooting (0-9) + 28 Days” value (Soybean; soybean) of the same molecule?
Answer: 5.2

Question: And the “Final Seed Yield + %” value (Soybean; [1])?
Answer: 0%

Question: And the “No of Large Pod Bearing Branches/Plant + %” value (Soybean; [1])?
Answer: 0%

Question: And the “Plant Biomass Score + %” value (Soybean; [1])?
Answer: 0%

Question: And the “Rooting + %” value (Soybean; [1])?
Answer: 0%

Question: And the “No of Large Pod Bearing Branches/Plant at Harvest” value (Navy bean cv Primel; navy bean)?
Answer: 1.2

Question: And the “Final Seed Yield at Harvest (g per pot)” value (Navy bean cv Primel; navy bean)?
Answer: 57.4 g per pot

Question: What about the “Plant Biomass Score (0-9) at Harvest” value (Navy bean cv Primel; navy bean) of the same molecule?
Answer: 5.1

Question: What about the “Rooting (0-9) + 28 Days” value (Navy bean cv Primel; navy bean) of the same molecule?
Answer: 7.0

Question: And the “Final Seed Yield + %” value (Navy bean cv Primel; [2])?
Answer: 0%

Question: What about the “No of Large Pod Bearing Branches/Plant + %” value (Navy bean cv Primel; [2]) of the same molecule?
Answer: 0%

Question: What about the “Plant Biomass Score + %” value (Navy bean cv Primel; [2]) of the same molecule?
Answer: 0%

Question: What about the “Rooting + %” value (Navy bean cv Primel; [2]) of the same molecule?
Answer: 0%

Question: What about the “Total No of Shoots/Plant at GS33” value (Winter wheat cv Limerick) of the same molecule?
Answer: 3.8

Question: What about the “Total No of “Large” Shoots/Plant at GS33” value (Winter wheat cv Limerick) of the same molecule?
Answer: 2.6

Question: What about the “Rooting (0-9) + 28 Days” value (Winter wheat cv Limerick) of the same molecule?
Answer: 6.0

Question: And the “Final Seed Yield + %” value (Winter wheat cv Limerick)?
Answer: 0%

Question: And the “Rooting + %” value (Winter wheat cv Limerick)?
Answer: 0%

Question: What about the “Total No of Shoots/Plant + %” value (Winter wheat cv Limerick) of the same molecule?
Answer: 0%

Question: And the “Total No of “Large” Shoots/Plant + %” value (Winter wheat cv Limerick)?
Answer: 0%

Question: And the “Final Seed Yield at Harvest (g per pot)” value (Winter wheat cv Limerick)?
Answer: 36.0 g per pot

Question: Which “Final Seed Yield + %” value (Soybean; in vivo) does the source give for `Nc1ccccc1C(=O)O` [AN, anthranilic acid] here?
Answer: 5%

Question: What about the “Rooting + %” value (Soybean; in vivo) of the same molecule?
Answer: 2%

Question: And the “No of Large Pod Bearing Branches/Plant at Harvest” value (Soybean; soybean)?
Answer: 1.0

Question: And the “Final Seed Yield at Harvest (g per pot)” value (Soybean; soybean)?
Answer: 34.8 g per pot

Question: And the “Plant Biomass Score (0-9) at Harvest” value (Soybean; soybean)?
Answer: 5.2

Question: What about the “Rooting (0-9) + 28 Days” value (Soybean; soybean) of the same molecule?
Answer: 4.3

Question: And the “No of Large Pod Bearing Branches/Plant + %” value (Soybean; [1])?
Answer: 0%

Question: And the “Plant Biomass Score + %” value (Soybean; [1])?
Answer: 0%

Question: What about the “Final Seed Yield + %” value (Navy bean cv Primel; in vivo) of the same molecule?
Answer: 7%

Question: And the “Rooting + %” value (Navy bean cv Primel; in vivo)?
Answer: 3%

Question: And the “No of Large Pod Bearing Branches/Plant at Harvest” value (Navy bean cv Primel; navy bean)?
Answer: 1.0

Question: What about the “Final Seed Yield at Harvest (g per pot)” value (Navy bean cv Primel; navy bean) of the same molecule?
Answer: 52.0 g per pot

Question: And the “Plant Biomass Score (0-9) at Harvest” value (Navy bean cv Primel; navy bean)?
Answer: 5.2

Question: What about the “Rooting (0-9) + 28 Days” value (Navy bean cv Primel; navy bean) of the same molecule?
Answer: 7.2

Question: What about the “No of Large Pod Bearing Branches/Plant + %” value (Navy bean cv Primel; [2]) of the same molecule?
Answer: 0%

Question: And the “Plant Biomass Score + %” value (Navy bean cv Primel; [2])?
Answer: 0%

Question: What about the “Total No of Shoots/Plant at GS33” value (Winter wheat cv Limerick) of the same molecule?
Answer: 3.0

Question: What about the “Total No of “Large” Shoots/Plant at GS33” value (Winter wheat cv Limerick) of the same molecule?
Answer: 2.0

Question: What about the “Rooting (0-9) + 28 Days” value (Winter wheat cv Limerick) of the same molecule?
Answer: 5.4

Question: What about the “Final Seed Yield + %” value (Winter wheat cv Limerick) of the same molecule?
Answer: 0%

Question: What about the “Rooting + %” value (Winter wheat cv Limerick) of the same molecule?
Answer: 0%

Question: And the “Total No of Shoots/Plant + %” value (Winter wheat cv Limerick)?
Answer: 0%

Question: What about the “Total No of “Large” Shoots/Plant + %” value (Winter wheat cv Limerick) of the same molecule?
Answer: 0%

Question: And the “Final Seed Yield at Harvest (g per pot)” value (Winter wheat cv Limerick)?
Answer: 33.6 g per pot

Question: With `CC(=O)Nc1ccc(O)cc1` [AC, N-(4-hydroxypheyl)acetamide] as the molecule, how does the “No of Large Pod Bearing Branches/Plant at Harvest” value (Soybean; soybean) read?
Answer: 1.0

Question: What about the “Final Seed Yield at Harvest (g per pot)” value (Soybean; soybean) of the same molecule?
Answer: 34.0 g per pot

Question: And the “Plant Biomass Score (0-9) at Harvest” value (Soybean; soybean)?
Answer: 5.2

Question: What about the “Rooting (0-9) + 28 Days” value (Soybean; soybean) of the same molecule?
Answer: 4.2

Question: And the “Final Seed Yield + %” value (Soybean; [1])?
Answer: 2%

Question: What about the “No of Large Pod Bearing Branches/Plant + %” value (Soybean; [1]) of the same molecule?
Answer: 0%

Question: And the “Plant Biomass Score + %” value (Soybean; [1])?
Answer: 0%

Question: What about the “Rooting + %” value (Soybean; [1]) of the same molecule?
Answer: 0%

Question: What about the “No of Large Pod Bearing Branches/Plant at Harvest” value (Navy bean cv Primel; navy bean) of the same molecule?
Answer: 1.0

Question: And the “Final Seed Yield at Harvest (g per pot)” value (Navy bean cv Primel; navy bean)?
Answer: 52.4 g per pot

Question: And the “Plant Biomass Score (0-9) at Harvest” value (Navy bean cv Primel; navy bean)?
Answer: 5.2

Question: What about the “Rooting (0-9) + 28 Days” value (Navy bean cv Primel; navy bean) of the same molecule?
Answer: 7.0

Question: What about the “Final Seed Yield + %” value (Navy bean cv Primel; [2]) of the same molecule?
Answer: 8%

Question: And the “No of Large Pod Bearing Branches/Plant + %” value (Navy bean cv Primel; [2])?
Answer: 0%

Question: What about the “Plant Biomass Score + %” value (Navy bean cv Primel; [2]) of the same molecule?
Answer: 0%

Question: What about the “Rooting + %” value (Navy bean cv Primel; [2]) of the same molecule?
Answer: 0%

Question: And the “Total No of Shoots/Plant at GS33” value (Winter wheat cv Limerick)?
Answer: 3.0

Question: What about the “Total No of “Large” Shoots/Plant at GS33” value (Winter wheat cv Limerick) of the same molecule?
Answer: 2.0

Question: And the “Rooting (0-9) + 28 Days” value (Winter wheat cv Limerick)?
Answer: 5.4

Question: What about the “Final Seed Yield + %” value (Winter wheat cv Limerick) of the same molecule?
Answer: 0%

Question: What about the “Rooting + %” value (Winter wheat cv Limerick) of the same molecule?
Answer: 0%

Question: What about the “Total No of Shoots/Plant + %” value (Winter wheat cv Limerick) of the same molecule?
Answer: 0%

Question: And the “Total No of “Large” Shoots/Plant + %” value (Winter wheat cv Limerick)?
Answer: 0%

Question: What about the “Final Seed Yield at Harvest (g per pot)” value (Winter wheat cv Limerick) of the same molecule?
Answer: 33.9 g per pot
